Consider one compound from patent US11478474B2, “2-(3′-(hydroxymethyl)-1-methyl-5-((5-(2-methyl-4-(oxetan-3-yl)piperazin-1-yl)pyridin-2-yl)amino)-6-oxo-1,6-dihydro-[3,4′-bipyridin]-2′-yl)-7,7-dimethyl-7,8-dihydro-2H-cyclopenta[4,5]pyrrolo[1,2-a]pyrazin-1(6H)-one as a BTK inhibitor” (HUTCHISON MEDIPHARMA LIMITED, priority 2020, dated 2022).

The subject of data set [1] is B cell activation in mouse whole blood induced by anti-IgD antibodies. In words: In vivo efficacy of the inhibitory effect on BTK target (anti-IgD antibody-induced B cell activation in mice whole blood after in vivo administration). How it is done:
Objects: B cells in mice whole blood were induced and activated by the anti-IgD antibody, and the inhibitory effect of the compound of the present invention on B cell activation in vivo was studied, so as to determine the inhibitory effect of the compound of the present invention on the BTK target in vivo.
Methods: C57BL/6 mice (female, 18-20 g, purchased from Shanghai Lingchang Biotechnology Co., Ltd.) were grouped according to Table 2.
The animals of each group were administered, then were placed in CO2 for anesthesia at designated time points, blood samples were taken from […] via retro-orbital bleeding, and heparin was used for anticoagulation; 90 μL of whole blood was taken from mice of each group, and added to a 96 well culture plate, and anti-mouse IgD antibody (BIO-RAD, Cat #MCA4693) was added to each well to a final concentration of 0.01 μg/μL (respectively for the each drug-treated group and anti-IgD antibody-inducted vehicle group); in addition, 90 μL of whole blood of mice in the vehicle group was taken and added to the 96-well culture plate, and PBS (phosphate buffer, GIBCO, Cat #C20012500BT) was added to each well to a final concentration of 0.01 μg/μL (namely, the vehicle control group); Each group was mixed well and incubated in a 37° C./5% CO2 incubator for 4 hours. In addition, the blood of mice in the drug-treated group was centrifuged to separate plasma for blood concentration analysis.
Calculation for B Cell Activation Ratio: B cell activation ratio=percentage of CD69+CD19+double positive B cells/percentage of CD19+single positive B cells
Calculation for Inhibition Ratio: Inhibition ratio=(percentage of B cell activation ratio in anti-IgD antibody-induced vehicle group-percentage of B cell activation ratio in drug-treated group)/(percentage of B cell activation ratio in anti-IgD antibody-induced vehicle group-percentage of B cell activation ratio in vehicle control group)×100%
All data are represented by mean±standard error. For the comparison between each drug-treated group and the anti-IgD antibody-induced vehicle group, p value was calculated by Graphpad Prism using one-way ANOVA analysis of variance and Dunnett's test, and for the comparison between each drug-treated group, p value was calculated by using unpaired t test.

Data set [2] is described as follows: Stability test in liver microsomes (mouse). In kind it is in vitro ADME. As to conditions: mouse liver microsomes 0.5 mg/mL, compound 1 μM, 37° C. From the text: (§1) Example 5 Stability Test in Liver Microsomes
(§2) Both male CD-1 mouse pooled liver microsomes and male SD rat pooled liver microsomes were purchased from BioreclamationIVT Corporation, USA.
(§3) Phenacetin, glucose-6-phosphate dehydrogenase (G-6-PDH) and nicotinamide adenine dinucleotide phosphate (NADP) were all purchased from Sigma-Aldrich Corporation, USA. Glucose-6-phosphate (G-6-P) was purchased from Shanghai Eybridge Chemical Technology Co., Ltd.
(§4) Ten mM test compound stock solution: a certain amount of test compound was weighed, and dissolved with an appropriate volume of DMSO to prepare a stock solution with a concentration of 10 mM for use.
(§5) Reaction stopping solution: an appropriate amount of internal standard compound phenacetin was dissolved in acetonitrile to prepare a reaction stopping solution with a concentration of 1000 ng/mL for use at room temperature.
(§6) The test compound stock solution was diluted with an organic solvent (usually a mixture of acetonitrile, methanol and water with various ratios, depending on the solubility of the compound, if necessary, 1 N hydrochloric acid or 1 N sodium hydroxide would be added to facilitate solubilization) to the 0.1 mM (the final concentration of the compound in the reaction system was 1 μM) and the concentration percentage of the organic solvents in the incubation system no more than 1% (wherein the percentage of DMSO was required to be no more than 0.1%). An appropriate amount of 100 mM NADP, 500 mM G-6-P and 100 Unit/mL G-6-PDH were mixed and diluted with ultrapure water (the final system contains 1 mM NADP, 5 mM G-6-P and 1 Unit/mL G-6-PDH), pre-incubated in a 37° C. water bath for 10 minutes and then placed on ice for use as a NADPH regeneration solution. 20 mg/mL liver microsomes solution and 200 mM phosphate buffer was mixed, and diluted with ultrapure water to give a liver microsomes solution containing 2.5 mg/mL liver microsomes (the final concentration of the reaction system is 0.5 mg/mL) and 50 mM phosphate buffer. The diluted liver microsomes solution was mixed with 0.1 mM compound solution, a mixture of 100 mM EDTA, 300 mM MgCl2 solution, 200 mM phosphate buffer (the final system was 3 mM MgCl2, 1 mM EDTA and 50 mM phosphate buffer) and water in an appropriate volume was added. Finally, the NADPH regeneration solution was added, then the reaction solution was placed in a 37° C. water bath to start the reaction (the reaction time was 30 minutes), and the reaction was stopped by adding the ice-cold acetonitrile reaction stopping solution containing the internal standard. The 0-minute sample was not incubated in a 37° C. water bath, and its difference from the 30-minute sample further lies in that the ice-cold acetonitrile reaction stopping solution containing the internal standard was added first, and then the NADPH regeneration solution was added. The sample added with the reaction stopping internal standard solution was vortexed and mixed well, and then centrifuged at 4400 rpm for 10 minutes. The supernatant was taken and diluted ten times with 50% methanol for LC-MS/MS analysis.
(§7) LC-MS/MS was used to determine the concentration of the compound in the sample. The percentage of the remaining compound after 30 minutes of incubation comparing with that in the 0-minute sample was calculated using the peak area ratio of the compound to the internal standard as an indicator, to evaluate the metabolic stability of the compound.
(§8) Instrument: API4500, API4000 or LTQ Mass Spectrometer; the liquid phase is UHPLC system (Shimadzu LC-30 AD, model Nexra X2) including liquid delivery unit, column thermostat, detector and autosampler; or Agilent 1200 Binary Pump series HPLC and CTC Autosampler.
(§9) Chromatographic column: Waters XSELECT Hss T3 C18 (2.5 μm, 2.1×50 mm) or […] (5 μm, 2.0×50 mm)
(§10) A: water with 0.1% FA (formic acid) (with or without 0.1% ACN (acetonitrile))
(§11) B: acetonitrile with 0.1% FA (formic acid).
On the technique in general: Liver microsomes are vesicles of endoplasmic reticulum, rich in cytochrome P450 enzymes.

A short description of data set [3]: Stability test in liver microsomes (rat). In kind it is in vitro ADME. As to conditions: rat liver microsomes 0.5 mg/mL, compound 1 μM, 37° C.
Source text: as §1, §2, §3, §4, §5, §6, §7, §8, §9, §10, §11

As to `C[C@H]1CN(C2COC2)CCN1c1ccc(Nc2cc(-c3ccnc(N4CCn5c(cc6c5CC(C)(C)C6)C4=O)c3CO)cn(C)c2=O)nc1` [GDC-0853, fenebrutinib, reference compound], in data set [1] (20 mg/kg single oral gavage, 16 h), the “Inhibition ratio (%)” value is recorded as 9%. For the same compound, in data set [1] (20 mg/kg single oral gavage, 16 h, mean ± standard error), the “B cell activation ratio (the proportion of activated B cells to total B cells)” value amounted to 29.3 ± 6.7. In addition, in data set [1] (20 mg/kg, 16 hours after administration, mice whole blood, anti-IgD antibody), the “inhibition ratio on B cell activation” value was 9%. In addition, the “MLM (percentage of the remaining compound after 30 minutes of incubation)” value in data set [2] was 76.3%. For the same compound, the “RLM (percentage of the remaining compound after 30 minutes of incubation)” value in data set [3] stood at 81.0%.
